Reference: paper PMC3502614 (Science (New York, N.Y.), 2011)

Biological target: T1, M. smegmatis RpsA (Mycolicibacterium smegmatis, UniProt A0QYY6)
T1 sequence (A0QYY6 1-479): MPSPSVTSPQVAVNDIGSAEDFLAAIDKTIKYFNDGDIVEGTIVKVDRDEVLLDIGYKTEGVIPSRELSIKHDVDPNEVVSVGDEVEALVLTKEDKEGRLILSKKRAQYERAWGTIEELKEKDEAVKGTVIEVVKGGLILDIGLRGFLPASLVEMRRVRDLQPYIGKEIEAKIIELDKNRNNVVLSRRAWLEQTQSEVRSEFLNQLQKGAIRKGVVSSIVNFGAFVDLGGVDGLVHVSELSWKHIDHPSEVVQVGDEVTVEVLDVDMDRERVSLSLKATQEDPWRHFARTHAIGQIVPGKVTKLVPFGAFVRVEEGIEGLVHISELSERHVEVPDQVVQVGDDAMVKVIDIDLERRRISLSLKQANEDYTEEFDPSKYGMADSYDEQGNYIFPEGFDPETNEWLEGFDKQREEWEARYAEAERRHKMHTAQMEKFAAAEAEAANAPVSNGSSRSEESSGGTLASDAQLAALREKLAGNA
Assay: isothermal titration calorimetry
Assay type: binding

`O=C(O)c1cnccn1` [POA, 2-pyrazinecarboxylic acid] was tested, and the “weak binding by ITC” value was “RpsA from naturally PZA-resistant M. smegmatis bound to POA only very weakly”.
